Measurements published in US20180296456A1, “Decapeptide-12 Modulation of Sirtuin Gene Expression in Epidermal Keratinocyte Progenitors” (Escape Therapeutics, Inc., priority 2017, published 2018).

How the values were obtained:
[1] = tested on: SIRT4; test: SIRT4 transcription, semi-quantitative RT-PCR in human epidermal progenitors; type: cell-based; details: 72 h
Description: (§1) Human neonatal epidermal progenitors (Thermo Fisher Scientific, NY) were seeded in 6-well plates at a density of 2×10^5 cells/well. Each well received 2 ml of Epilife media containing 60 μM calcium chloride (Thermo Fisher Scientific, NY). Plates were incubated in a humidified chamber at 37 degrees Celsius and 5 percent CO2. Twenty-four hours later, cells were treated with various concentrations of oxyresveratrol or decapeptide-12 dissolved in PBS containing 5 percent DMSO. Control wells received vehicle only (5 percent DMSO and PBS). Final concentration of DMSO in each well was 0.05 percent.
(§2) After a 72 hour incubation period, cells were trypsinized and total RNA extracted, using RNeasy kit (Qiagen, Valencia, Calif.) according to the manufacturer's protocol.
(§3) RNA concentration was determined using nanodrop (Thermo fisher scientific, NY). Two μg of total RNA were used to synthesize cDNA using oligo dT primers and TaqMan reverse transcription reagents (Thermo fisher scientific, NY). The reaction was carried out in DNA Engine Peltier Thermal Cycler (Bio-Rad, Hercules, Calif.). The annealing temperature was 25 degrees Celsius for 10 minutes, followed by first strand synthesis at 48 degrees Celsius for 1 hour, and heat inactivation at 95 degrees Celsius for 5 minutes.
(§4) The SIRT1-7 primers (table 1) were designed using Primer3. The semi-quantitative PCR reactions were performed on a DNA Engine Peltier Thermo Cycler (Bio-Rad, Hercules, Calif.). PCR was carried under the following conditions: denaturation at 94 degrees Celsius for 2 minutes and primer extension at 54 degrees Celsius for 30 seconds in 34 cycles for SIRT 1-7 and the housekeeping gene 18S.
(§5) Samples were run and resolved on a 1.5 percent agarose gel containing 0.5 μg/ml of ethidium bromide and imaged using the FluorChem HD2 Imaging System (Protein simple, San Jose, Calif.). Densitometry analysis was carried out using the AlphaEase FC software (Protein simple, San Jose, Calif.). Intensity ratios were calculated as the intensity value for each gene divided by the intensity value of the internal control gene 18S.
(§6) The effect of the decapeptides P4, P4A, P4B, and P4C upon the transcription levels of sirtuins 1-7 was evaluated. Table 4 summarizes transcription levels for all four decapeptides with the corresponding genes, at tested concentrations of: 10, 30, 50, 100, and 300 (all in μM).

[2] = tested on: SIRT3; test: SIRT3 transcription, semi-quantitative RT-PCR in human epidermal progenitors; type: cell-based; details: 72 h
Description: as §1, §2, §3, §4, §5, §6

[3] = Trypan blue cell viability, 7 days, epidermal progenitors; type: cell-based; details: human, relative to control, read-out: epidermal progenitor viability after 7 days
Description: (§7) The effect of each of the decapeptides upon cell viability was also tested. In particular, cells were incubated with the decapeptide at various concentrations and then counted for viability relative to the control (untreated cells) using trypan blue. Cytotoxicity was measured according to the following formula:
(§8) [1−(# of cells in control−# of live cells in test sample)/# of cells in control]×100 percent.

[4] = tested on: SIRT1; test: SIRT1 transcription, semi-quantitative RT-PCR in human epidermal progenitors; type: cell-based; details: 72 h
Description: as §1, §2, §3, §4, §5, §6

[5] = Trypan blue cell viability, 7 days, melanoblasts; type: cell-based; details: human, relative to control, read-out: melanoblast viability after 7 days
Description: as §7, §8

[6] = tested on: SIRT6; test: SIRT6 transcription, semi-quantitative RT-PCR in human epidermal progenitors; type: cell-based; details: 72 h
Description: as §1, §2, §3, §4, §5, §6

[7] = tested on: SIRT2; test: SIRT2 transcription, semi-quantitative RT-PCR in human epidermal progenitors; type: cell-based; details: 72 h
Description: as §1, §2, §3, §4, §5, §6

[8] = MTT cell proliferation assay, melanoblasts; type: cell-based, human; details: human, MTT, 72 h, read-out: melanoblast proliferation rate after 72 hours
Description: (§9) Proliferation rates for three human cell lines (epidermal progenitors, melanoblasts, and fibroblasts) were determined using a TACS® MTT Cell Proliferation Kit. Cells were seeded at 2.5×10^4/well in 96-well plates in a humidified atmosphere with 5 percent CO2 at 37 degrees Celsius. Twenty-four hours later, the decapeptides were added to the corresponding wells at varying concentrations and incubated for 72 hours. The remainder of the procedure was performed following the manufacturer's protocol.

[9] = in vitro; type: cell-based; details: human, human epidermal progenitors
Description: Proliferation rates were determined using a TACS® MTT Cell Proliferation Kit (R&D systems, Minneapolis, Minn.). Cells were seeded at 2.5×10^4/well in 96-well plates in a humidified atmosphere with 5 percent CO2 at 37 degrees Celsius. Twenty-four hours later, decapeptide-12 or oxyresveratrol were added to the corresponding wells at varying concentrations (0, 3, 10, 30, 100, 300, and 1000 μM), and cultures were then incubated for 72 hours. The remainder of the procedure was performed following the manufacturer's protocol.
as §9

What does the source list for “Ac-YRSRKYSSWY-NH2 [P4C, Acetyl-YRSRKYSSWY-amide]”?
SIRT4 transcription increase relative to control ([1]; 10 μM): 3 ± 1%; SIRT4 transcription increase relative to control ([1]; 30 μM): 3 ± 1%; SIRT4 transcription increase relative to control ([1]; 50 μM): 11 ± 6%; SIRT4 transcription increase relative to control ([1]; 100 μM): 32 ± 9%; SIRT4 transcription increase relative to control ([1]; 300 μM): 67 ± 9%; SIRT3 transcription increase relative to control ([2]; 10 μM): 8 ± 3%; SIRT3 transcription increase relative to control ([2]; 30 μM): 6 ± 2%; SIRT3 transcription increase relative to control ([2]; 50 μM): 45 ± 9%; SIRT3 transcription increase relative to control ([2]; 100 μM): 82 ± 8%; SIRT3 transcription increase relative to control ([2]; 300 μM): 159 ± 6%; viability at 168 h, 3 µM ([3]; 3 μM): 100%; viability at 168 h, 10 µM ([3]; 10 μM): 99 ± 1%; viability at 168 h, 30 µM ([3]; 30 μM): 98 ± 1%; viability at 168 h, 50 µM ([3]; 50 μM): 97.4 ± 1%; viability at 168 h, 100 µM ([3]; 100 μM): 96.6 ± 2%; viability at 168 h, 300 µM ([3]; 300 μM): 95.7 ± 3%; viability at 168 h, 500 µM ([3]; 500 μM): 94.8 ± 3%; viability at 168 h, 1000 µM ([3]; 1000 μM): 94 ± 3%; SIRT1 transcription increase relative to control ([4]; 10 μM): 7 ± 3%; SIRT1 transcription increase relative to control ([4]; 30 μM): 5.00%; SIRT1 transcription increase relative to control ([4]; 50 μM): 1.00%; SIRT1 transcription increase relative to control ([4]; 100 μM): 137 ± 8%; SIRT1 transcription increase relative to control ([4]; 300 μM): 190 ± 9%; viability at 168 h, 3 µM ([5]; 3 μM): 100%; viability at 168 h, 10 µM ([5]; 10 μM): 99 ± 1%; viability at 168 h, 30 µM ([5]; 30 μM): 98.4 ± 1%; viability at 168 h, 50 µM ([5]; 50 μM): 97.9 ± 1%; viability at 168 h, 100 µM ([5]; 100 μM): 97 ± 2%; viability at 168 h, 300 µM ([5]; 300 μM): 96 ± 3%; viability at 168 h, 500 µM ([5]; 500 μM): 95.5 ± 3%; viability at 168 h, 1000 µM ([5]; 1000 μM): 94.8 ± 3%; SIRT6 transcription increase relative to control ([6]; 10 μM): 12 ± 3%; SIRT6 transcription increase relative to control ([6]; 30 μM): 9 ± 4%; SIRT6 transcription increase relative to control ([6]; 50 μM): 31 ± 5%; SIRT6 transcription increase relative to control ([6]; 100 μM): 124 ± 7%; SIRT6 transcription increase relative to control ([6]; 300 μM): 87 ± 3%; SIRT2 transcription increase relative to control ([7]; 10 μM): 5.00%; SIRT2 transcription increase relative to control ([7]; 30 μM): 2 ± 1%; SIRT2 transcription increase relative to control ([7]; 50 μM): 1.00%; SIRT2 transcription increase relative to control ([7]; 100 μM): 42 ± 1%; SIRT2 transcription increase relative to control ([7]; 300 μM): 31 ± 9%; viability at 72 h, 3 µM ([8]; 3 μM): 100%; viability at 72 h, 10 µM ([8]; 10 μM): 100%; viability at 72 h, 30 µM ([8]; 30 μM): 99 ± 1%; viability at 72 h, 50 µM ([8]; 50 μM): 98 ± 1%; viability at 72 h, 100 µM ([8]; 100 μM): 97 ± 2%; viability at 72 h, 300 µM ([8]; 300 μM): 96 ± 3%; viability at 72 h, 500 µM ([8]; 500 μM): 95 ± 2%; viability at 72 h, 1000 µM ([8]; 1000 μM): 95 ± 2%; viability at 72 h, 3 µM [9]: 99 ± 1%; viability at 72 h, 10 µM [9]: 99 ± 1%; viability at 72 h, 30 µM [9]: 98 ± 1%; viability at 72 h, 50 µM [9]: 98 ± 1%; viability at 72 h, 100 µM [9]: 97 ± 1%; viability at 72 h, 300 µM [9]: 97 ± 1%; viability at 72 h, 500 µM [9]: 96 ± 2%; viability at 72 h, 1000 µM [9]: 96 ± 2%
